One compound from patent US20060280787A1, “Pharmaceutical formulation of the tubulin inhibitor indibulin for oral administration with improved pharmacokinetic properties, and process for the manufacture thereof” (priority 2005, published 2006) can be followed below.

The nature of data set [1]: Solubility of Indibulin in solvents. It is filed as physicochemical. An excerpt: (§1) Indibulin is obtained by chemical synthesis as a white crystalline powder. Its solubility in hydrophilic solvents is poor. […] Due to these properties, the bioavailability of pure Indibulin is very low, as is Indibulin's bioavailability in common pharmaceutical dosage forms, e.g., powder, granula, tablets or capsules.
However, these organic solvents cannot be used for application in humans due to their toxicity.

Data set [2] is described as follows: Tolerability in preclinical experiments in rodents. It is filed as in vivo. Conditions: highly effective doses. From the text:
(§2) In vitro, Indibulin exerts significant antitumor activity against a variety of malignancies (e.g., prostate, brain, breast, pancreas, and colon). […] Based on its mechanism of action, it is expected to target all types of solid tumors. […] Another advantage for further development is its easy synthesis, in contrast to other tubulin-inhibitory compounds.

The nature of data set [3]: Neurological symptoms in animal experiments. In kind it is in vivo, animals.
From the text: as §2

The nature of data set [4]: Bioavailability of pure Indibulin. It is filed as in vivo.
From the text: as §1

Data set [5] deals with microtubules. As to the kind of experiment: Polymerization of microtubules in a cell-free system. In kind it is biochemical. An excerpt:
(§3) Indibulin is a synthetic small molecule tubulin inhibitor with significant antitumor activity in vitro and in vivo. […] Furthermore, the molecule selectively blocks cell cycle progression at metaphase.

The subject of data set [6] is microtubules in tumor cells. As to the kind of experiment: Polymerization of microtubules in tumor cells. In kind it is cell-based.
From the text: as §3

For the compound `O=C(Nc1ccncc1)C(=O)c1cn(Cc2ccc(Cl)cc2)c2ccccc12` [Indibulin, N-(pyridine-4-yl)-[1-(4-chlorobenzyl)-indole-3-yl]glyoxylic acid amide], the “solubility in organic solvents” value in data set [1] (dimethylformamide, dimethylsulfoxide and N-methylpyrrolidone) was “sufficient solubility”. The “solubility in highly concentrated organic acids” value in data set [1] (roughly >50% w/v acetic acid or lactic acid) was “relatively good solvents”. In data set [1] (water, methanol, ethanol or 2-propanol), the “solubility in hydrophilic solvents” value is on record as “practically insoluble”. The tolerability result in data set [2] is recorded as “very well tolerated”. Further, the neurological symptoms result in data set [3] is reported as “No neurological symptoms”. In data set [4], the bioavailability result is recorded as “very low”. The polymerization of microtubules result in data set [5] and in data set [6] was “inhibits polymerization of microtubules” throughout.
